From PubChem BioAssay (NCI)
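Growth conditions: 96-well plates. Treatment: test compound, 48 hours, 5 concentrations. Analysis: linear interpolation between bracketing concentrations; unreached endpoints set to highest concentration. The concentration for 50% growth inhibition is given as GI50. TGI is the concentration that stops growth completely.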

Assays:
Assay in all cases: NCI tumour cell line growth inhibition, 48 h
UACC-62 melanoma = tested on: UACC-62 melanoma
EKVX NSCLC = tested on: EKVX NSCLC
CAKI-1 renal = tested on: CAKI-1 renal
MDA-MB-435 = tested on: MDA-MB-435
HCT-15 colon = tested on: HCT-15 colon
IGROV1 ovarian = tested on: IGROV1 ovarian
HL-60(TB) leukemia = tested on: HL-60(TB) leukemia
MDA-MB-468 breast = tested on: MDA-MB-468 breast
T-47D breast = tested on: T-47D breast
RPMI-8226 leukemia = tested on: RPMI-8226 leukemia
HS 578T breast = tested on: HS 578T breast
SK-MEL-5 melanoma = tested on: SK-MEL-5 melanoma
786-0 renal = tested on: 786-0 renal
BT-549 breast = tested on: BT-549 breast
M14 melanoma = tested on: M14 melanoma
OVCAR-8 ovarian = tested on: OVCAR-8 ovarian
DU-145 prostate = tested on: DU-145 prostate
SK-MEL-2 melanoma = tested on: SK-MEL-2 melanoma
SF-295 CNS = tested on: SF-295 CNS
OVCAR-5 ovarian = tested on: OVCAR-5 ovarian
OVCAR-3 ovarian = tested on: OVCAR-3 ovarian
SK-OV-3 ovarian = tested on: SK-OV-3 ovarian
MOLT-4 leukemia = tested on: MOLT-4 leukemia
COLO 205 colon = tested on: COLO 205 colon
A498 renal = tested on: A498 renal
NCI-H226 lung = tested on: NCI-H226 lung
SK-MEL-28 melanoma = tested on: SK-MEL-28 melanoma
CCRF-CEM leukemia = tested on: CCRF-CEM leukemia
PC-3 prostate = tested on: PC-3 prostate
SF-539 CNS = tested on: SF-539 CNS
NCI-H23 lung = tested on: NCI-H23 lung
U251 CNS = tested on: U251 CNS
K-562 leukemia = tested on: K-562 leukemia
SF-268 CNS = tested on: SF-268 CNS
OVCAR-4 ovarian = tested on: OVCAR-4 ovarian
HCT-116 colon = tested on: HCT-116 colon
TK-10 renal = tested on: TK-10 renal
LOX IMVI melanoma = tested on: LOX IMVI melanoma
NCI-H522 lung = tested on: NCI-H522 lung
HOP-92 NSCLC = tested on: HOP-92 NSCLC
SR leukemia = tested on: SR leukemia
UACC-257 melanoma = tested on: UACC-257 melanoma
RXF 393 renal = tested on: RXF 393 renal
UO-31 renal = tested on: UO-31 renal
HT29 colon = tested on: HT29 colon
SNB-19 CNS = tested on: SNB-19 CNS
SNB-75 CNS = tested on: SNB-75 CNS
HOP-62 NSCLC = tested on: HOP-62 NSCLC
MCF7 breast = tested on: MCF7 breast
SN12C renal = tested on: SN12C renal
MDA-MB-231 breast = tested on: MDA-MB-231 breast
HCC-2998 colon = tested on: HCC-2998 colon
KM12 colon = tested on: KM12 colon
MALME-3M melanoma = tested on: MALME-3M melanoma

`CN1CCN(C(=O)CCN(C(=O)Oc2cc3c(c4ccccc24)[C@H](CCl)CN3C(=O)c2cc3cc(OCCCN4CCC4)ccc3[nH]2)[C@H]2CCSSC2)CC1` showed a GI50 (UACC-62 melanoma) of 115 nM, a TGI (UACC-62 melanoma) of 294 nM and a GI50 (EKVX NSCLC) of 351 nM. The TGI (EKVX NSCLC) was 1550 nM, the GI50 (CAKI-1 renal) was 150 nM and the TGI (CAKI-1 renal) was 509 nM. The GI50 (MDA-MB-435) was 285 nM, the TGI (MDA-MB-435) was 1170 nM and the GI50 (HCT-15 colon) was 209 nM. For the same compound, the TGI (HCT-15 colon) was 1350 nM, the GI50 (IGROV1 ovarian) was 545 nM and the TGI (IGROV1 ovarian) was 2450 nM. The GI50 (HL-60(TB) leukemia) was 390 nM, the TGI (HL-60(TB) leukemia) was 2030 nM and the GI50 (MDA-MB-468 breast) was 148 nM. The TGI (MDA-MB-468 breast) was 442 nM, the GI50 (T-47D breast) was 570 nM and the TGI (T-47D breast) was 2400 nM. For the same compound, the GI50 (RPMI-8226 leukemia) was 570 nM, the TGI (RPMI-8226 leukemia) was 3870 nM and the GI50 (HS 578T breast) was 1230 nM. The TGI (HS 578T breast) was 3170 nM, the GI50 (SK-MEL-5 melanoma) was 152 nM and the TGI (SK-MEL-5 melanoma) was 336 nM. The GI50 (786-0 renal) was 330 nM, the TGI (786-0 renal) was 1140 nM and the GI50 (BT-549 breast) was 1020 nM. For the same compound, the TGI (BT-549 breast) was 2460 nM, the GI50 (M14 melanoma) was 195 nM and the TGI (M14 melanoma) was 653 nM. For the same compound, the GI50 (OVCAR-8 ovarian) was 136 nM, the TGI (OVCAR-8 ovarian) was 500 nM and the GI50 (DU-145 prostate) was 165 nM. The TGI (DU-145 prostate) was 1250 nM, the GI50 (SK-MEL-2 melanoma) was 345 nM and the TGI (SK-MEL-2 melanoma) was 1060 nM. It also gave a GI50 (SF-295 CNS) of 107 nM, a TGI (SF-295 CNS) of 291 nM and a GI50 (OVCAR-5 ovarian) of 390 nM. The TGI (OVCAR-5 ovarian) was 1390 nM, the GI50 (OVCAR-3 ovarian) was 426 nM and the TGI (OVCAR-3 ovarian) was 1880 nM. The GI50 (SK-OV-3 ovarian) was 313 nM, the TGI (SK-OV-3 ovarian) was 7080 nM and the GI50 (MOLT-4 leukemia) was 231 nM. The TGI (MOLT-4 leukemia) was 1580 nM, the GI50 (COLO 205 colon) was 431 nM and the TGI (COLO 205 colon) was 2260 nM. It also gave a GI50 (A498 renal) of 199 nM, a TGI (A498 renal) of 386 nM and a GI50 (NCI-H226 lung) of 148 nM. For the same compound, the TGI (NCI-H226 lung) was 1160 nM, the GI50 (SK-MEL-28 melanoma) was 208 nM and the TGI (SK-MEL-28 melanoma) was 502 nM. It also gave a GI50 (CCRF-CEM leukemia) of 269 nM, a TGI (CCRF-CEM leukemia) of 3510 nM and a GI50 (PC-3 prostate) of 378 nM. The TGI (PC-3 prostate) was 2070 nM, the GI50 (SF-539 CNS) was 325 nM and the TGI (SF-539 CNS) was 1200 nM. For the same compound, the GI50 (NCI-H23 lung) was 65.7 nM, the TGI (NCI-H23 lung) was 211 nM and the GI50 (U251 CNS) was 100 nM. The TGI (U251 CNS) was 377 nM, the GI50 (K-562 leukemia) was 225 nM and the TGI (K-562 leukemia) was 1590 nM. It also gave a GI50 (SF-268 CNS) of 281 nM, a TGI (SF-268 CNS) of 1630 nM and a GI50 (OVCAR-4 ovarian) of 1360 nM. The TGI (OVCAR-4 ovarian) was 2780 nM, the GI50 (HCT-116 colon) was 234 nM and the TGI (HCT-116 colon) was 1040 nM. The GI50 (TK-10 renal) was 1560 nM, the TGI (TK-10 renal) was 3570 nM and the GI50 (LOX IMVI melanoma) was 85.5 nM. For the same compound, the TGI (LOX IMVI melanoma) was 314 nM, the GI50 (NCI-H522 lung) was 254 nM and the TGI (NCI-H522 lung) was 1280 nM. For the same compound, the GI50 (HOP-92 NSCLC) was 997 nM, the TGI (HOP-92 NSCLC) was 3640 nM and the GI50 (SR leukemia) was 66.1 nM. It also gave a TGI (SR leukemia) of 906 nM, a GI50 (UACC-257 melanoma) of 378 nM and a TGI (UACC-257 melanoma) of 1810 nM. For the same compound, the GI50 (RXF 393 renal) was 189 nM, the TGI (RXF 393 renal) was 454 nM and the GI50 (UO-31 renal) was 190 nM. It also gave a TGI (UO-31 renal) of 480 nM, a GI50 (HT29 colon) of 211 nM and a TGI (HT29 colon) of 963 nM. It also gave a GI50 (SNB-19 CNS) of 272 nM, a TGI (SNB-19 CNS) of 1650 nM and a GI50 (SNB-75 CNS) of 497 nM. It also gave a TGI (SNB-75 CNS) of 2320 nM, a GI50 (HOP-62 NSCLC) of 146 nM and a TGI (HOP-62 NSCLC) of 678 nM. The GI50 (MCF7 breast) was 49.5 nM, the TGI (MCF7 breast) was 1430 nM and the GI50 (SN12C renal) was 527 nM. The TGI (SN12C renal) was 9020 nM, the GI50 (MDA-MB-231 breast) was 402 nM and the TGI (MDA-MB-231 breast) was 1450 nM. The GI50 (HCC-2998 colon) was 146 nM, the TGI (HCC-2998 colon) was 334 nM and the GI50 (KM12 colon) was 308 nM. For the same compound, the TGI (KM12 colon) was 1510 nM, the GI50 (MALME-3M melanoma) was 232 nM and the TGI (MALME-3M melanoma) was 745 nM.
